# Laboratory results from patent US20260001915A1, “METHODS FOR TREATING OBESITY WITH AN MC4R AGONIST” (RHYTHM PHARMACEUTICALS, INC., priority 2022, published 2026).
# Columns and labels:
# [1] = Phase 2 open-label study of setmelanotide SC daily in patients with hypothalamic obesity: BMI, BMI Z-score, body weight after 16 weeks; format: in vivo, human; settings: for Weight (kg), Week 16 Actual, Mean (SD): 16 weeks of treatment
# Description: This example describes a phase 2 study that seeks to evaluate the change in body weight in response to an exemplary MC4R agonist, e.g., setmelanotide (i.e., SEQ ID NO: 140) administered subcutaneously (SC) daily in patients with hypothalamic obesity (HO).
# Setmelanotide, 10 mg/mL in a sterile solution for injection, was provided at 1.0, 2.0, 3.0 mg QD for patients 6 to <16 years of age, and 2.0 to 3.0 mg QD for patients ≥16 years of age.
# The primary endpoint of this study was to identify a proportion of patients with ≥5% reduction from baseline in BMI after 16 weeks of setmelanotide treatment compared to a historic control of <5% in this patient population.
# (§1) The secondary endpoints included determination of: • Composite proportion of patients aged ≥6 to <18 years with ≥0.2 reduction of BMI Z-score and patients aged ≥18 years with 5% reduction of body weight from baseline after 16 weeks of setmelanotide • Proportion of patients aged ≥6 to <18 years with ≥0.2 reduction of BMI Z-score from baseline after 16 weeks of setmelanotide • Proportion of patients aged 18 years with 5% reduction of body weight from baseline after 16 weeks of setmelanotide • Change from baseline in waist circumference in patients aged 18 years after 16 weeks of setmelanotide treatment. • Change in hunger in response to 16 weeks of setmelanotide treatment as measured by change from baseline in daily and global hunger scores. • Safety and tolerability assessed by the frequency and severity of AEs, vital signs, and laboratory evaluations. • Change from baseline in metabolic parameters following treatment with setmelanotide, including fasting glucose, HbA1c, lipid profiles (total-, high-density lipoprotein [HDL]-, and low-density lipoprotein [LDL]-cholesterol, triglycerides). • Proportion of patients, regardless of age, with ≥5% body weight loss from baseline after 16 weeks of setmelanotide treatment compared to a historic control of <5% in this patient population. • Change from baseline in BMI, weight, and waist circumference, regardless of age, after 16 weeks of setmelanotide treatment. • Change from baseline in BMI Z-score in patients aged 6 to 12 years and in those aged 6 to <18 years.
# This study describes a Phase 2, multicenter, open-label, proof of concept study designed to assess the effect of setmelanotide on weight loss within a population affected by HO. Approximately 15 patients aged 6 to 40 years, inclusive, were enrolled across approximately 3-5 clinical sites in the United States (US).
# Patients who were determined to be eligible, based on Screening assessments, returned to the clinic for the Baseline Visit (Visit 2) and received the first setmelanotide dose. The starting setmelanotide dose was dependent on patient age; however, for all patients, the setmelanotide dose was titrated to a final dose of 3.0 mg/day (initial titration phase), as follows
# • Starting at Baseline (Day 1; Visit 2) through approximately Day 14, patients received setmelanotide 1.0 mg/day. • Starting at approximately Day 15 through 28, patients received setmelanotide 2.0 mg/day.
# • Starting at Baseline (Day 1; Visit 2) through approximately Day 14, patients received setmelanotide 2.0 mg/day. • Starting at approximately Day 15, patients received setmelanotide 3.0 mg/day; patients continue to receive setmelanotide 3.0 mg/day for 14 weeks.
# Patients returned to the study center for Visits 3, 4, and 5 (Weeks 4, 8, and 12, respectively), with each of these visits conducted approximately 4 weeks apart. All patients returned to the study center at Week 16 (Visit 6) and received the last setmelanotide injection. Study endpoints were analyzed at Visit 6.
# All patients received open-label setmelanotide in this study. Setmelanotide was provided as a preserved, multidose solution for injection to be administered SC, QD. It was formulated as a 10 mg/mL sterile, preserved, clear to slightly opalescent, colorless to slightly colored solution, practically free of visible particles. […]
# [2] = Phase 2 hypothalamic obesity study: daily hunger questionnaire (most hungry last 24 hrs), weekly average of daily most hunger score; format: in vivo, human; settings: patients ≥12 years of age
# Text: as §1
# All screening evaluations were completed and reviewed to confirm that potential patients meet all eligibility criteria. […]
# The daily hunger questionnaire as assessed in patients ≥12 years of age also achieved a clinically meaningful diminution quantifying the most hungry the patient has experienced over the last 24 hours, with a mean reduction in the hunger score of −2.66 after 16 weeks. […]
# [3] = Phase 2 hypothalamic obesity study: safety and tolerability (TEAEs, SAEs); format: in vivo, human
# Text: as §1
# All screening evaluations were completed and reviewed to confirm that potential patients meet all eligibility criteria. Exemplary evaluations included a medical history review, physical examination, comprehensive skin examination, measurement of height, weight, waist circumference, body composition assessment, pregnancy test (if applicable), daily hunger questionnaires, global hunger assessment, and evaluation of PHQ-A or PHQ-9, C—SSRS, SF-12 or SF-10, IWQOL, FSH, HbA1c, and fasting lipid panel. Adjustments were made depending upon specific circumstances and in consultation with the investigator. Immediate safety concerns were discussed immediately upon occurrence or awareness to determine if the patient should continue or discontinue study treatment.
# The most commonly reported TEAE was nausea (63.6%).
# [4] = Long-term extension study of setmelanotide, hypothalamic obesity subpopulation; format: in vivo, human
# Description: This example describes a long-term extension study of the use of setmelanotide in treating hypothalamic obesity, and further to investigate the safety and tolerability of chronic setmelanotide administration for up to 5 years from initiation of treatment.
# Setmelanotide, 10 mg/mL in a sterile solution, QD. Dosing was continued at the dosage of the cessation of the previous setmelanotide trial, (e.g., 3.0 mg QD for most patients enrolled in the setmelanotide trial for treating subjects with hypothalamic obesity), unless a change is determined necessary by the Investigator, e.g., for safety, tolerability, TEAE, SAE, or other concern.
# The objective of this study was to examine the long-term safety parameters of chronic, daily subcutaneous setmelanotide injections for a period of up to 5 years. In order to assess this primary endpoint, the occurrence of TEAEs and SAEs were tracked, in addition to other clinical data including any new emergence of injection site reactions, changes in resting heart rate or blood pressure, laboratory workup (e.g., fasting glucose, HbA1c, lipid profiles (total-, high-density lipoprotein [HDL]-, and low-density lipoprotein [LDL]-cholesterol, triglycerides), liver enzymes, changes in physical examination (e.g., weight, BMI, BMI Z-Score), and cardiac changes (e.g., as measured by an electrocardiogram (ECG). […]
# [5] = clinical trials; cited from earlier work
# [6] = patients with POMC and LEPR deficiency obesity; cited from earlier work
compound,measurement,setting,value
"CC(=O)N[C@@H](CCCNC(=N)N)C(=O)N[C@H]1CSSC[C@@H](C(N)=O)NC(=O)[C@H](Cc2c[nH]c3ccccc23)NC(=O)[C@H](CCCNC(=N)N)NC(=O)[C@@H](Cc2ccccc2)NC(=O)[C@H](Cc2cnc[nH]2)NC(=O)[C@@H](C)NC1=O [setmelanotide, Ac-Arg-c(Cys-D-Ala-His-D-Phe-Arg-Trp-Cys)-NH2]","Weight (kg), Week 16 Actual, Median",[1]; 6-<18 years (N = 9),93.07 kg
same,"Weight (kg), Week 16 Change from Baseline, Mean (SD)",[1]; 6-<18 years (N = 9),-17.83 kg
same,"Weight (kg), Week 16 Change from Baseline, Median",[1]; 6-<18 years (N = 9),-16.77 kg
same,"Weight, Week 16 Percent Change from Baseline, Mean (SD)",[1]; 6-<18 years (N = 9),−17.80%
same,"Weight, Week 16 Percent Change from Baseline, Median",[1]; 6-<18 years (N = 9),−14.12%
same,"Weight (kg), Week 16 Actual, Mean (SD)",[1]; 6-<18 years (N = 9),89.98 kg
same,Mean BMI reduction,[1]; 9 completers at 16 weeks,−19.5%
same,Mean change in BMI Z score,"[1]; FAS set, after 16 weeks",−1.1 point
same,"Weight (kg), Week 16 Actual, Median",[1]; Total (N = 11),94.27 kg
same,"Weight (kg), Week 16 Change from Baseline, Mean (SD)",[1]; Total (N = 11),-15.87 kg
same,"Weight (kg), Week 16 Change from Baseline, Median",[1]; Total (N = 11),-13.90 kg
same,"Weight, Week 16 Percent Change from Baseline, Mean (SD)",[1]; Total (N = 11),−15.79%
same,"Weight, Week 16 Percent Change from Baseline, Median",[1]; Total (N = 11),−13.68%
same,"Weight (kg), Week 16 Actual, Mean (SD)",[1]; Total (N = 11),91.22 kg
same,Mean percent change in body weight,"[1]; after 16 weeks of setmelanotide, SD 7.9%",−17.8%
same,Reduction in BMI Z score,"[1]; all patients less than 18 years old, 16 weeks",statistically significant reduction in BMI Z score
same,Proportion of patients achieving at least a 10% reduction in BMI,"[1]; completers (n=9), 16 weeks, p<0.0001",100%
same,Proportion of patients achieving greater than or equal to 5% reduction in BMI (primary endpoint),"[1]; full analysis set (n=11), 16 weeks, p<0.0001",100%
same,Reduction in weight,"[1]; pediatric and adult patients, 16 weeks of daily SC therapy",statistically significant and clinically meaningful reduction in weight
same,"Weight (kg), Week 16 Actual, Median",[1]; ≥18 years (N = 2),96.78 kg
same,"Weight (kg), Week 16 Change from Baseline, Mean (SD)",[1]; ≥18 years (N = 2),-7.02 kg
same,"Weight (kg), Week 16 Change from Baseline, Median",[1]; ≥18 years (N = 2),-7.02 kg
same,"Weight, Week 16 Percent Change from Baseline, Mean (SD)",[1]; ≥18 years (N = 2),−6.76%
same,"Weight, Week 16 Percent Change from Baseline, Median",[1]; ≥18 years (N = 2),−6.76%
same,"Weight (kg), Week 16 Actual, Mean (SD)",[1]; ≥18 years (N = 2),96.78 kg
same,"Weekly average of daily most hunger score, Week 16 Actual, Median",[2]; N 7,5.67
same,"Weekly average of daily most hunger score, Week 16 Change from Baseline, Median",[2]; N 7,−1.71
same,"Weekly average of daily most hunger score (Most Hungry Last 24 hrs), Week 16 Actual, Mean (SD)",[2]; N 7 at Week 16,4.55 (2.84)
same,Safety and tolerability of setmelanotide treatment,"[3]; 16 weeks, up to 3.0 mg/day SC",consistent with established data
same,Incidence of nausea (most commonly reported TEAE),[3]; eleven patients,63.6%
same,"Skin hyperpigmentation, e.g., melanocytic naevus, patients reporting",[3]; eleven patients,two of the eleven patients
same,Patients with at least one treatment emergent adverse event (TEAE),"[3]; eleven patients, related or unrelated to administration",All eleven of the patients
same,SAE related to Clostridium dificile colitis,"[3]; one patient, able to complete the study","classified as severe, but not related to setmelanotide therapy"
same,BMI in long-term extension,"[4]; 5 patients from the Phase 2 study, additional 3-8 months",all of the patients but one continued to further see reductions in BMI
same,BMI of the fifth patient (increase in BMI in the extension period),[4]; relative to BMI at initiation of the Phase 2 study,did not return to his or her original BMI
same,Effect on blood pressure,[5],has not been shown to adversely affect blood pressure
same,Reduction in hunger,[6],statistically significant and clinically meaningful reduction in hunger
same,Weight loss,[6],rapid and sustained significant and clinically meaningful weight loss
